Source: patent US12527732B2, “Biobased polyglyceryl esters and compositions comprising the same” (Inolex Investment Corporation, priority 2021, dated 2026)

How the values were obtained:
Assay type in all cases: physicochemical
[1] = Critical Micelle Concentration (CMC) via equilibrium surface tensiometry; conditions: pure water, 22° C.
Procedure: Determination of Critical Micelle Concentration (CMC) via Equilibrium Surface Tensiometry. […] Dipping distance for the plate was set to 3.00 mm prior to return to the surface within +/−0.01 mm for measurement of surface tension force. All tests were performed at 22° C.±0.2° C. For each surfactant a 1.00% stock solution in pure water was prepared and incrementally dosed into initially pure water to augment surfactant concentration while measuring surface tension after each concentration augmentation. Each surfactant was tested in duplicate runs at concentrations ranging from 0.001% to 0.500% of surfactant. The CMC value is taken at the intersection between the regression straight line of the linearly dependent region and the straight line passing through the plateau when surface tension is plotted as a function of concentration.

[2] = Aqueous Solution Turbidity (AST) / water solubility and clarity of 5% and 10% aqueous solutions
Procedure: (§1) Measurement of Turbidity via Nephelometric Turbidimetry. Clarity of solutions and formulations is reported as Aqueous Solution Turbidity (AST) or Formulation Turbidity (FT) measured in nephelometric turbidity units (NTU). Turbidity values were determined on an HF Scientific Micro 100 Benchtop Turbidity Meter operating at room temperature (23° C.±2° C.). Aqueous Solution Turbidity is an inherent property of a PGE composition when measured as specified at 5% in deionized water at 23±2° C.

[3] = Solubilization of 1% Spectrastat G2 Natural by solubilizer, Formulation Turbidity (FT); conditions: 5% solubilizer, aqueous
Procedure: as §1

[4] = STERC via bubble pressure tensiometry; conditions: at the CMC
Procedure: Dynamic surface tension reduction, i.e. surface tension reduction as a function of time, is measured by bubble pressure tensiometry using the maximum bubble pressure (MBP) method. When dynamic surface tension data obtained from MBP experiments is plotted as a function of surface age, fitting of the data to a first-order decay function as in Formula (III) enables one to obtain the Surface Tension Equilibration Rate Constant (STERC) for a given surfactant at a specific concentration.
Surface Tension Equilibration Rate Constant (STERC) is calculated according to Formula (III): γt=γeq+(γi−γeq)^−t/K (III) where: • γt=surface tension at time=t, in mN/m; • γeq=equilibrium surface tension, in mN/m; • γi=initial surface tension, in mN/m; • t=time, in ms; and • K=surface tension equilibration rate constant (STERC) in ms^−1.
Determination of STERC via Bubble Pressure Tensiometry. Dynamic surface tensions were determined on a Kruss BP100 Bubble Pressure Tensiometer, using a 0.256 mm OD silane-treated glass capillary submerged to a depth of 1.00 cm for testing and buoyancy compensated. […] The STERC as reported herein is determined at the CMC and is obtained by plotting the dynamic surface tension as a function of surface age and fitting the data to the equation below to obtain a first-order rate constant for reduction of surface tension from the initial value to the equilibrium value. […]

With Heptyl Glucoside [CE4] as the substance, how does the CMC [1] read?
Its CMC is 0.0672 wt %.

What about the “AST @ 5%” value ([2]; 5% in deionized water, 23±2° C.) of the same substance?
The value was 0.65 NTU.

And the “AST @ 10%” value ([2]; 10% in deionized water)?
The value was 1.2 NTU.

What about the FT [3] of the same substance?
The FT was 4.21 NTU.

And the “STERC at CMC” value ([4]; 22° C.)?
The value was 3226 ms^−1.

What about the STERC ([4]; unit printed s^−1) of the same substance?
Its STERC is 3226 s⁻¹.
